Experimental data as given in ChEMBL document CHEMBL5727197, “Bicyclic urea, thiourea, guanidine and cyanoguanidine compounds useful for the treatment of pain” (2019).

Target: High affinity nerve growth factor receptor (Homo sapiens, UniProt P04629)
Test: Kinase Binding Assay: TrkA binding activity was determined in a TrkA LanthaScreen™ Eu Kinase Binding Assay. 5 nM His-tagged recombinant human TrkA (6HIS tagged cytoplasmic domain from Invitrogen, Catalog No. PV3144) was incubated with 4 nM Alexa-Fluor® Tracer 236 (Invitrogen Cat. No. PV5592), 2 nM biotinylated anti-His (Invitrogen Cat. No. PV6090), and 2 nM europium-labeled Streptavidin (Invitrogen Cat. No. PV5899), in buffer (25 mM MOPS, pH 7.5, 5 mM MgCl2, 0.005% Triton X-100). Three fold serial dilutions of compounds of the invention in DMSO were added to a final percentage of 2% DMSO. After 60-minute incubation at 22° C., the reaction was measured using the EnVision mutlimode plate reader (PerkinElmer) via TR-FRET dual wavelength detection at […]. The percent of control was calculated using a ratiometric emission factor.

High affinity nerve growth factor receptor, sequence (P04629 whole entry, the tested form may be a part): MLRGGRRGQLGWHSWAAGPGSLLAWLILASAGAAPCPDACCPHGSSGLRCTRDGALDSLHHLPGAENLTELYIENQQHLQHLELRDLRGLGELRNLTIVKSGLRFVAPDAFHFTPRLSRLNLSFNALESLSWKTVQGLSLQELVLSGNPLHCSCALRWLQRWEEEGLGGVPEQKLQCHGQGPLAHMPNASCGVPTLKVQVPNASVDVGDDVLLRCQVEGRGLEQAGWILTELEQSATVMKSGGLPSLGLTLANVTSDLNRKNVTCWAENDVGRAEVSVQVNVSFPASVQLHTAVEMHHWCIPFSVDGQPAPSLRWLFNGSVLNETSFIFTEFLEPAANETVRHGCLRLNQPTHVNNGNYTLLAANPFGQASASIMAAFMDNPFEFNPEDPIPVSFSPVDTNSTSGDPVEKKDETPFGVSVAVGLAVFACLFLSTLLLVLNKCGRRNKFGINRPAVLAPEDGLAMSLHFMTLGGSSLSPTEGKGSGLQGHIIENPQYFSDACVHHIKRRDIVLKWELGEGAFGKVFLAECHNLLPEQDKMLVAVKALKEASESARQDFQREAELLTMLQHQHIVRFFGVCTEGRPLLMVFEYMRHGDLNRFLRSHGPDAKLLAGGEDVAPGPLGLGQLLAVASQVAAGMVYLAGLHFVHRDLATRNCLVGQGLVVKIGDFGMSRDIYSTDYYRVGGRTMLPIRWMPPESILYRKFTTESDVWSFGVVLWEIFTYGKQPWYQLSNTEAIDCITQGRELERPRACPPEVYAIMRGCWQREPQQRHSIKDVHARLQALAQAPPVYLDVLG

IC50 [nM] | Compound
< 100 | CC(C)(C)OC(=O)N1CCO[C@@H](COc2nn(-c3ccccc3)c(NC(=O)N[C@@H]3c4ccccc4C4(CC4)[C@H]3O)c2Cl)C1
< 100 | Cc1c(-c2ccc(=O)n(C)c2)nn(-c2ccccc2)c1NC(=O)NC1CN(CC(F)(F)F)Cc2ccccc21 (stereo not drawn)
< 100 | CC1(C)C[C@@H](O)[C@H](NC(=O)Nc2c3c(nn2-c2ccccc2)COC3)c2ccccc21 (relative stereo)
